US5756511A, “Method for treating symptoms of a neurodegenerative condition” (Cell Therapeutics, Inc., priority 1995, dated 1998)

Columns and labels:
[1] = test system: endogenous APP; test: Western Blot of endogenous APP in culture supernatants of SH-SY5Y cells; format: cell-based; details: SH-SY5Y incubated 18 hours with 5 nM human TNFA and increasing concentrations of compound
Procedure: This Example illustrates the effect of representative compounds nos. 2576, 2583, 3501, 3577, 4522, 4533, 4535 and 4537 used in the inventive method on endogenous APP expression.
Cell cultures were prepared as in Example 1 using SH-SY5Y human neuroblastoma cells. Culture supernatants from SH-SY5Y cells incubated for 18 hours with 5 nM human TNFA and increasing concentrations of representative compounds identified above were separated on a 4-20% SDS-polyacrylamide gel and transferred to nitrocellulose. The nitrocellulose filter was probed with anti-APP antibody (Boehringer Mannheim, Indpls, Ind.), and the results visualized by Enhanced Chemiluminecence (Amersham Life Sciences, Arlington Heights, Ill.).

[2] = test system: human amyloid precursor protein (APP) promoter; test: APP promoter-alkaline phosphatase (pHAPPro. 1) reporter assay in transfected SH-SY5Y cells stimulated with hTNFα; format: cell-based; details: SH-SY5Y transfected with pHAPPro. 1; 1 nM hTNFα; increasing concentrations of agent
Procedure: This example is an in vitro assay confirming activity of an ability of representative agents to inhibit APP synthesis by effecting the level of alkaline phosphatase in the culture medium of human neuroblastoma cells, SH-SY5Y (Beidler et al., 1978), expression of which is controlled by a human amyloid precursor protein (APP) promoter.
The SH-SY5Y were transfected with the promoter-alkaline phosphatase reporter gene construct pHAPPro. The transfected cells were prepared as follows:
A DNA fragment comprising nucleotide pairs -660 to +20 of the human APP promoter (Salbaum et al. 1988) was isolate by polymerase chain reaction using human placental DNA as a template. Xba I and ASP718 restriction endonuclease recognition sites were incorporated during amplification to facilitate subcloning upstream of an alkaline phosphatase reporter gene, forming the plasmid pHAPPro. 1, represented in FIG. 1. SH-SY5Y were subsequently transfected with pHAPPro. 1.
Comparing results obtained in this assay to a standard based on alkaline phosphatase expression controlled by a human phosphoglycerol kinase (PGK) promoter, relative to any cytotoxic effects an agent confirms therapeutic efficacy in the inventive method.
In all assays, controls were done in triplicate. Control assays specifically included assays using: 1) unstimulated cells; 2) cells stimulated with 1 nM hTNFαalone; 3) cells stimulated with 1 nM hTNFα and increasing concentrations of agent, as tested for all representative agents; 4) cells stimulated with 1 nM hTNFα and increasing concentrations of vehicle (100% ethanol), corresponding to vehicle concentrations in test agent preparations.
Subsequent validation of all results included repeating tests with an expanded dose range. Results obtained were compared to an agent's inhibition of constituitive promoter for the phosphoglycerol kinase gene and endogenous amyloid precursor protein expression in neuroblastoma cells
SH-SY5Y cells, prepared above, were plated into wells of a 96-well dish at a density of 20,000 cells per well in […] AIM V medium (Gibco/BRL, Gaithersburg, Md.: CAT# 21021-019). Dishes were incubated at 5% CO2 and 37° C. for 12 to 24 hours. […]
Culture medium […] from each well was transferred to a corresponding well of a 96-well ELISA dish and […] 1× SEAP (0.5M diethanolamine (pH 9.8); 0.25 mM MgCl2; 0.01 mM ZnSO4; 10 mM L-homoarginine; 1 mM para-nitrophenyphosphate, Berger et al., 1988.), prepared above, was added to each well. The plates were incubated 10 minutes in 5% CO2 and 37° C., after which the kinetic change in absorbance at 405 nm was measured on a BIOTEK plate reader.
All data were imported into plotting software for analysis. Triplicate data points were averaged and standard error (from mean) was calculated using accepted standards. […]

SMILES | inhibition of expression of endogenous APP (FIG. 3) [1] | inhibition of APP expression (FIG. 2) [2]
COc1cc(CNCC(O)CCCCCCCCCn2c(=O)c3c(ncn3C)n(C)c2=O)cc(OC)c1OC (stereo not drawn) [Compound 3501] | inhibition of APP expression, in a dose-dependent manner | inhibit APP expression in a dose-dependent fashion
CCCCCCCCNCC(O)CCCCCCCCCn1c(=O)c2c(ncn2C)n(C)c1=O (stereo not drawn) [Compound 2576] | inhibition of APP expression, in a dose-dependent manner | 
COc1cc(CNC(CO)CCCCCCCCCn2c(=O)c3c(ncn3C)n(C)c2=O)cc(OC)c1OC (stereo not drawn) [Compound 4522] | inhibition of APP expression, in a dose-dependent manner | inhibit APP expression in a dose-dependent fashion
Cn1cnc2c1c(=O)n(CCCCCCCCCCC(=O)NCc1ccc3c(c1)OCO3)c(=O)n2C [Compound 4533] | inhibition of APP expression, in a dose-dependent manner | 
CCCCCCCCN(CC(CCCCCCCCCn1c(=O)c2c(ncn2C)n(C)c1=O)OC(C)=O)C(C)=O (stereo not drawn) [Compound 4537] | inhibition of APP expression, in a dose-dependent manner | inhibit APP expression in a dose-dependent fashion
COc1cc(NC(=O)CCCCCCCCCCn2c(=O)c3c(ncn3C)n(C)c2=O)cc(OC)c1OC [Compound 4535] | inhibition of APP expression, in a dose-dependent manner | 
CCCCCCCCCCNCC(O)CCCCCCCCCn1c(=O)c2c(ncn2C)n(C)c1=O (stereo not drawn) [Compound 2583] | inhibition of APP expression, in a dose-dependent manner | 
COc1cc(CNC(=O)CCCCCCCCCCn2c(=O)c3c(ncn3C)n(C)c2=O)cc(OC)c1OC [Compound 3577] | inhibition of APP expression, in a dose-dependent manner | inhibit APP expression in a dose-dependent fashion
